ChEMBL document CHEMBL1201862, “PubChem BioAssay data set” (2004)
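Results reflect a 48-hour exposure of cells in 96-well plates to compound at five concentrations. At the GI50, growth is halved.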 The source made the active and inactive calls. No stated cut-off is given here; in the data, active = GI50 up to about 1.1 µM and inactive = higher.

Assays:
Experiment in all cases: DTP human tumour cell line panel, 48 h
HOP-62 = test system: HOP-62
SN12C = test system: SN12C
SNB-19 = test system: SNB-19
LOX IMVI = test system: LOX IMVI
CCRF-CEM = test system: CCRF-CEM
IGROV-1 = test system: IGROV-1
U-251 = test system: U-251
MDA-MB-435 = test system: MDA-MB-435
MCF7 = test system: MCF7
K562 = test system: K562
DU-145 = test system: DU-145
A549 = test system: A549
SK-MEL-28 = test system: SK-MEL-28
786-0 = test system: 786-0
COLO 205 = test system: COLO 205
M14 = test system: M14
NCI/ADR-RES = test system: NCI/ADR-RES
UO-31 = test system: UO-31
Hs-578T = test system: Hs-578T
T47D = test system: T47D
ACHN = test system: ACHN
NCI-H522 = test system: NCI-H522
NCI-H460 = test system: NCI-H460
HCC 2998 = test system: HCC 2998
TK-10 = test system: TK-10
BT-549 = test system: BT-549
MDA-N = test system: MDA-N
HCT-116 = test system: HCT-116
HCT-15 = test system: HCT-15
RPMI-8226 = test system: RPMI-8226
OVCAR-5 = test system: OVCAR-5
MOLT-4 = test system: MOLT-4
SK-MEL-5 = test system: SK-MEL-5
SF-268 = test system: SF-268
PC-3 = test system: PC-3
OVCAR-4 = test system: OVCAR-4
NCI-H23 = test system: NCI-H23
CAKI-1 = test system: CAKI-1
UACC-257 = test system: UACC-257
EKVX = test system: EKVX
HT-29 = test system: HT-29
HL-60 = test system: HL-60
SW-620 = test system: SW-620
Malme-3M = test system: Malme-3M
OVCAR-8 = test system: OVCAR-8
SK-OV-3 = test system: SK-OV-3
MDA-MB-231 = test system: MDA-MB-231
RXF 393 = test system: RXF 393
SNB-75 = test system: SNB-75
NCI-H226 = test system: NCI-H226
KM12 = test system: KM12
UACC-62 = test system: UACC-62
OVCAR-3 = test system: OVCAR-3
A498 = test system: A498
SF-539 = test system: SF-539
HOP-92 = test system: HOP-92
SF-295 = test system: SF-295
SR = test system: SR
SK-MEL-2 = test system: SK-MEL-2

Measured: GI50

CCC(C)C1NC(=O)C(NC(=O)C(CC(C)C)N(C)C(=O)[C@@H]2CC(O)CN2C(=O)[C@H](C)O)C(C)OC(=O)[C@H](Cc2ccc(OC)cc2)N(C)C(=O)[C@@H]2CCCN2C(=O)[C@H](CC(C)C)NC(=O)C(C)C(=O)[C@H](C(C)C)OC(=O)CC1O (stereo partly drawn)
inactive: NCI/ADR-RES 6.84 µM | UO-31 1.44 µM | CAKI-1 1.14 µM
2.13 µM: HCT-15
active: HOP-62 0.25 µM | SN12C 0.147 µM | SNB-19 0.164 µM | LOX IMVI 0.138 µM | CCRF-CEM 0.191 µM | IGROV-1 0.181 µM | U-251 0.0718 µM | MDA-MB-435 0.152 µM | MCF7 0.0627 µM | K562 0.29 µM | DU-145 0.356 µM | A549 0.325 µM | SK-MEL-28 0.0462 µM | 786-0 0.258 µM | COLO 205 0.117 µM | M14 0.0935 µM | Hs-578T 0.0266 µM | T47D 0.0452 µM | ACHN 0.351 µM | NCI-H522 0.15 µM | NCI-H460 0.117 µM | HCC 2998 0.148 µM | TK-10 0.676 µM | BT-549 0.189 µM | MDA-N 0.133 µM | HCT-116 0.0458 µM | RPMI-8226 0.249 µM | OVCAR-5 0.265 µM | MOLT-4 0.102 µM | SK-MEL-5 0.0359 µM | SF-268 0.153 µM | PC-3 0.252 µM | OVCAR-4 0.17 µM | NCI-H23 0.0169 µM | UACC-257 0.276 µM | EKVX 0.0201 µM | HT-29 0.134 µM | HL-60 0.417 µM | SW-620 0.235 µM | Malme-3M 0.0664 µM | OVCAR-8 0.406 µM | SK-OV-3 0.179 µM | MDA-MB-231 0.349 µM | RXF 393 0.0638 µM | SNB-75 0.141 µM | NCI-H226 0.0641 µM | KM12 0.035 µM | UACC-62 0.0542 µM | OVCAR-3 0.232 µM | A498 0.759 µM | SF-539 0.0319 µM | HOP-92 0.255 µM | SF-295 0.225 µM | SR 0.345 µM | SK-MEL-2 0.0621 µM

COc1cc(OC)c(-c2cc(=O)c3c(OC)c(OC)c(OC)c(OC)c3o2)cc1OC
> 100 µM: HCT-15
inactive: HOP-62 36.1 µM | SN12C > 100 µM | SNB-19 > 87.7 µM | LOX IMVI > 100 µM | CCRF-CEM > 28.4 µM | IGROV-1 > 100 µM | U-251 64 µM | MDA-MB-435 > 100 µM | MCF7 > 100 µM | K562 > 73.1 µM | DU-145 > 100 µM | A549 > 100 µM | SK-MEL-28 > 100 µM | 786-0 > 69.3 µM | COLO 205 > 100 µM | M14 > 100 µM | NCI/ADR-RES 21.9 µM | UO-31 20.8 µM | Hs-578T 32 µM | T47D 8.18 µM | ACHN > 100 µM | NCI-H522 17.7 µM | NCI-H460 > 100 µM | HCC 2998 > 100 µM | TK-10 97.5 µM | BT-549 > 100 µM | MDA-N > 100 µM | HCT-116 > 100 µM | RPMI-8226 > 20.1 µM | OVCAR-5 > 100 µM | MOLT-4 22.2 µM | SK-MEL-5 46.8 µM | SF-268 > 100 µM | PC-3 88.1 µM | OVCAR-4 > 90.8 µM | NCI-H23 33 µM | CAKI-1 36.1 µM | UACC-257 > 100 µM | EKVX > 100 µM | HT-29 > 100 µM | HL-60 13.6 µM | SW-620 > 100 µM | Malme-3M > 100 µM | OVCAR-8 31.3 µM | SK-OV-3 > 100 µM | MDA-MB-231 19.8 µM | RXF 393 12.7 µM | SNB-75 14.9 µM | NCI-H226 > 100 µM | KM12 74.1 µM | UACC-62 29.6 µM | OVCAR-3 30.2 µM | A498 > 61.2 µM | SF-539 > 100 µM | HOP-92 11.6 µM | SF-295 28.1 µM | SR > 28.3 µM | SK-MEL-2 > 100 µM
